From article PMC6414199, “Bim escapes displacement by BH3-mimetic anti-cancer drugs by double-bolt locking both Bcl-XL and Bcl-2” (eLife, 2019)

Biological target: T1, Bcl-XL (Homo sapiens, UniProt Q07817)
T1 construct: gene BCL2L1; mCerulean3-Bcl-XL fusion expressed in MCF-7 cells
Test: live-cell FLIM-FRET displacement of Venus-Bad from mCer3-Bcl-XL in MCF-7 cells
Assay type: cell-based

T1 sequence (Q07817 whole entry, the tested form may be a part): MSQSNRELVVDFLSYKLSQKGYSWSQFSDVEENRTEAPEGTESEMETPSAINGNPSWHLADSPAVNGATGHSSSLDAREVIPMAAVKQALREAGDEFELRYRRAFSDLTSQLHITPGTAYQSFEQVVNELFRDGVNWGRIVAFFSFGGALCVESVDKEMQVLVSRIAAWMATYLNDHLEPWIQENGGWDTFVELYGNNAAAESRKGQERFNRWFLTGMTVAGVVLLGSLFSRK

Compound: CN(C)CC#Cc1ccc(OCCCc2sc(N3CCc4cccc(C(=O)Nc5nc6ccccc6s5)c4C3)nc2C(=O)O)c(F)c1 [A-1155463]
- IC50: < 1250 nM
